Laboratory results from US20110207705A1, “OVIEDOMYCIN DERIVATIVES, METHOD FOR OBTAINING SAME AND USE THEREOF” (UNIVERSIDAD DE OVIEDO, priority 2008, published 2011).
Where two headings read alike, the source gives them in different places.

Columns and labels:
[1] = system: A549 (lung); assay: Anti-tumour activity, sulforhodamine B (SRB) colorimetric cell growth test; assay type: cell-based; details: 48 h exposure, read-out: GI50 (concentration at which the compound tested inhibits 50% of the cell growth in comparison with untreated cells)
Procedure: (§1) The OVM derivatives were tested against a series of cell lines from tumours. Cell growth and viability were quantitatively determined with a colorimetric type test, using the reaction with sulforhodamine B (SRB), according to the technique described by Faircloth et al. (Journal of Tissue and Culture Methods 1988, 11, 201-205).
(§2) 96-well microtiter plates are inoculated with cells (5×10^3 cells per well) in aliquots of 195 μl of medium, incubating them for 18 h, in medium without added compound, to allow the cells to adhere to the surface. Next, the compounds to be tested are added, in samples of 5 μl, in a concentration range of 10 to 10^−8 μg/ml, dissolved in DMSO/EtOH (0.2% in PS buffer). After 48 h exposure, the anti-tumour effect is measured using the SRB technique: the cells are fixed by adding 50 μl of cold trichloroacetic acid (50%) (w/v) and it is incubated for 60 min. at 4° C. The plates are washed with deionized water and dried. 100 μl of SRB solution (0.4% w/v in 1% acetic acid) are added to each well, and it is incubated for 10 min. at ambient temperature. The unbound SRB is eliminated, washing with 1% acetic acid. The plates are air dried and the bound colorant is dissolved with Tris buffer. The optical densities are read in an automatic dish spectrophotometer reader at a wavelength of 490 nm.

[2] = system: HT29 (colon); assay: as above; assay type: cell-based; details: read-out: GI50 (concentration at which the compound tested inhibits 50% of the cell growth in comparison with untreated cells)
Procedure: as §1, §2

[3] = system: MDA-MB-231 (breast); assay: as above; assay type: cell-based; details: 48 h exposure, read-out: GI50 (concentration at which the compound tested inhibits 50% of the cell growth in comparison with untreated cells)
Procedure: as §1, §2

[4] = system: tumour cell lines; assay: Anti-tumour activity against the series of tumour cell lines (SRB test); assay type: cell-based; details: tumour cell lines of Table 5, in words
Procedure: as §1, §2

[5] = spontaneous dehydration and oxidation; J. Am. Chem. Soc. 1999, 121, 1786-1794; cited from earlier work

Compound | GI50 [1] [µM] | GI50 ([2]; 48 h exposure) [µM] | GI50 [3] [µM] | GI50 values (in words) [4] | GI50 ([1]; Homo sapiens) [µM] | GI50 ([2]; Homo sapiens, HT-29, 48 h exposure) [µM] | GI50 ([3]; Homo sapiens) [µM] | anti-tumour activity compared with OVM [4] | stability [5]
4a,12b-dehydro-UWM6 [formula IX] | 0.77 | 1.85 | 0.65 | submicromolar range |  |  |  | clearly greater activities than that of the OVM | 
C[C@]1(O)CC(=O)c2c(cc(O)c3c2C(=O)c2cccc(O)c2C3=O)C1 [formula VI, rabelomycin] |  |  |  |  | 5.32 | 10.9 | 6.8 |  | 
C[C@]1(O)CC(=O)c2c(cc(O)c3c2C(=O)c2ccc(O)c(O)c2C3=O)C1 [formula XIII, 9-hydroxy-rabelomycin] | 3.1 | 14.1 | 7.06 |  |  |  |  |  | 
prejadomycin 2-carboxylate [formula VII] | 0.6 | 1.17 | 0.38 | submicromolar range |  |  |  | clearly greater activities than that of the OVM | 

Continued, in another order:

GI50 [1] [µM] | GI50 ([2]; 48 h exposure) [µM] | GI50 [3] [µM] | GI50 values (in words) [4] | GI50 ([1]; Homo sapiens) [µM] | GI50 ([2]; Homo sapiens, HT-29, 48 h exposure) [µM] | GI50 ([3]; Homo sapiens) [µM] | Compound | anti-tumour activity compared with OVM [4] | stability [5]
7.62 | 12.4 | 13.3 |  |  |  |  | 5-hydroxy-rabelomycin [formula XII] |  | 
8.7 | 6.9 | 5.6 |  |  |  |  | Cc1c(O)c2cc(O)c3c(=O)c4c(O)cccc4c(=O)c3c2c(=O)c1=O [OVM, Oviedomycin] |  | 
6.24 | 8.03 | 2.56 |  |  |  |  | Cc1cc(O)c2c3c(c(O)c(O)c2c1)C(=O)c1c(O)cccc1C3=O [formula VIII, 5-hydroxy-dehydro-rabelomycin] |  | 
0.29 | 1.29 | 0.24 | submicromolar range |  |  |  | CC1=CC(=O)[C@@H]2c3cc4cccc(O)c4c(O)c3C(=O)C[C@]2(O)C1 [formula X, prejadomycin] | clearly greater activities than that of the OVM | 
> 100 | > 100 | 24.8 |  |  |  |  | C[C@]1(O)CC(=O)C2c3cc4cccc(O)c4c(O)c3C(=O)C[C@]2(O)C1 (stereo partly shown) [formula XI, UWM6] |  | unstable and spontaneously becomes rabelomycin
